Our source for the GI50 and TGI values is PubChem BioAssay (NCI).

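Each compound was tested at five concentrations against cells in 96-well plates for 48 hours. Here, GI50 denotes the concentration required for 50% inhibition of growth. TGI: total growth inhibition.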

Test systems include DU-145 prostate; HCC-2998 colon; IGROV1 ovarian; NCI/ADR-RES ovarian; OVCAR-8 ovarian; RXF 393 renal; SF-295 CNS; SK-OV-3 ovarian; SN12C renal; SR leukemia.
Common to all, as to assay: inhibition of tumour cell growth, NCI panel, 48 h

`NC(=NCc1ccccc1)C(N=Nc1ccccc1)C(=O)NCc1ccccc1` (centres undefined): the GI50 with DU-145 prostate was 2.28 µM; in the assay with HCC-2998 colon, 11.5 µM; in the assay with IGROV1 ovarian, 3.42 µM; with NCI/ADR-RES ovarian it was 6.46 µM; in the assay with OVCAR-8 ovarian, 3.56 µM; with RXF 393 renal, 12.9 µM. Moreover, the GI50 is 1.9 µM with SF-295 CNS, 20.1 µM with SK-OV-3 ovarian and 22.6 µM in the assay on SN12C renal. Besides, the TGI amounted to 6.01 µM with DU-145 prostate; 29.9 µM with HCC-2998 colon; 19.8 µM in the assay with IGROV1 ovarian; 23.8 µM in the assay with NCI/ADR-RES ovarian; 15.2 µM with OVCAR-8 ovarian; 27 µM in the assay on RXF 393 renal. Also, the TGI with SF-295 CNS came out at 5.16 µM; in the assay on SK-OV-3 ovarian, 47.7 µM; with SN12C renal, 87 µM.

`COc1c(C)cc2c(C(C)C)c(O)c(O)c(C=O)c2c1O`: the TGI in the assay on HCC-2998 colon was more than 100 µM; with IGROV1 ovarian, more than 100 µM; in the assay with OVCAR-8 ovarian, 83.8 µM; with RXF 393 renal, 55.2 µM; in the assay with SF-295 CNS it was 86 µM; with SK-OV-3 ovarian, more than 100 µM. This compound yielded a TGI with SN12C renal of 75.8 µM.

As for `COc1cc(-c2nccc3cc(OC)c(OC)cc23)ccc1O`, the TGI in the assay on HCC-2998 colon, in the assay with IGROV1 ovarian, in the assay on OVCAR-8 ovarian, in the assay on SF-295 CNS, in the assay with SK-OV-3 ovarian and in the assay on SN12C renal was more than 100 µM in each case. Further, the TGI in the assay on SR leukemia is more than 100 µM.

With `N#Cc1ccc(Cc2ccccn2)cc1Cl`, the TGI with IGROV1 ovarian, with OVCAR-8 ovarian, with RXF 393 renal, in the assay with SF-295 CNS, in the assay with SK-OV-3 ovarian and in the assay with SN12C renal was more than 100 µM throughout. The same compound had a TGI in the assay on SR leukemia of more than 100 µM.

As for `CCOC(=O)C(=O)Nc1nc2c(OCC)cccc2s1`, the TGI in the assay on HCC-2998 colon, in the assay with IGROV1 ovarian, in the assay with OVCAR-8 ovarian, in the assay on RXF 393 renal, in the assay on SF-295 CNS and in the assay on SK-OV-3 ovarian was more than 100 µM each time. In the assay with SN12C renal, this compound yielded a TGI of more than 100 µM.

In the case of `CC(CCC[C@H](C)CO)[C@H]1[C@@H](O)C(O)C2[C@@H]3C[C@@H](O)C4(O)C[C@@H](O)CC[C@]4(C)C3CC[C@@]21C` (some centres undefined), the TGI in the assay on HCC-2998 colon, in the assay with IGROV1 ovarian, in the assay with OVCAR-8 ovarian, in the assay with RXF 393 renal, with SF-295 CNS and in the assay with SK-OV-3 ovarian was more than 100 µM throughout. In addition, the TGI in the assay on SN12C renal and in the assay with SR leukemia was more than 100 µM in each case.

On to `Cc1ccc(-c2nc3ccccc3c(=O)n2NCC2(O)OCC(O)C(O)C2O)cc1` (centres undefined), for which the TGI in the assay with OVCAR-8 ovarian, in the assay on RXF 393 renal, in the assay on SF-295 CNS, in the assay with SK-OV-3 ovarian, in the assay on SN12C renal and in the assay on SR leukemia was more than 100 µM each time.

In the case of `BrC(Br)=C1C(=C(Br)Br)C(Br)C1Br` (centres undefined), the TGI with DU-145 prostate was 0.502 µM; in the assay with HCC-2998 colon, 0.777 µM; with IGROV1 ovarian it was 5.68 µM; with OVCAR-8 ovarian, 5.46 µM; with RXF 393 renal, 0.948 µM; with SF-295 CNS, 2.32 µM. Besides, the results for the TGI in the assay on SK-OV-3 ovarian, in the assay with SN12C renal and in the assay on SR leukemia were 12.7 µM, 2.31 µM and 1.54 µM, respectively.

For the compound `CC(CC(=O)N1C(=O)C(C)(C)[C@@H](O)[C@H]1CC(C)C(Cl)(Cl)Cl)C(Cl)(Cl)Cl` (some centres undefined), the TGI in the assay with HCC-2998 colon, with IGROV1 ovarian, in the assay with OVCAR-8 ovarian, in the assay with SF-295 CNS, with SK-OV-3 ovarian and with SN12C renal was more than 100 µM in each case.

Consider `C[C@]12CCC(=O)C(OC(=O)c3ccc([N+](=O)[O-])cc3)=C1CCC2=O`, for which the TGI with HCC-2998 colon, with IGROV1 ovarian, in the assay on OVCAR-8 ovarian, in the assay with RXF 393 renal, with SF-295 CNS and with SK-OV-3 ovarian was more than 100 µM each time. The TGI in the assay on SN12C renal and in the assay on SR leukemia was more than 100 µM each time.

Turning to `CO[C@@H]1C=C[C@@]23c4cc5c(cc4CN(C[C@@H]2O)[C@H]3C1)OCO5`, the TGI in the assay with HCC-2998 colon is 56.6 µM; in the assay on IGROV1 ovarian it was more than 100 µM; in the assay on OVCAR-8 ovarian it was more than 100 µM; in the assay on RXF 393 renal, more than 100 µM; with SF-295 CNS it was more than 100 µM; in the assay with SK-OV-3 ovarian it was more than 100 µM. The TGI in the assay with SN12C renal amounted to 87.9 µM; with SR leukemia it was 77.6 µM.

In the case of `O=C1C(Cl)=C(Nc2ccc(Nc3ccccc3)c(NC3=C(Cl)C(=O)c4ccccc4C3=O)c2)C(=O)c2ccccc21`, the GI50 was 14.9 µM with DU-145 prostate; 6.71 µM with HCC-2998 colon; 15.9 µM in the assay on IGROV1 ovarian; 27.5 µM with NCI/ADR-RES ovarian; 4.08 µM in the assay on OVCAR-8 ovarian; 3.09 µM with RXF 393 renal. Moreover, the GI50 in the assay on SF-295 CNS is 3.79 µM; in the assay on SN12C renal it was 2.97 µM. Further, the TGI in the assay on DU-145 prostate is 28.4 µM; with HCC-2998 colon it was 41.2 µM; with IGROV1 ovarian it was 69.1 µM; in the assay on NCI/ADR-RES ovarian, more than 100 µM; in the assay with OVCAR-8 ovarian, more than 100 µM; with RXF 393 renal it was 14.2 µM. The TGI was 19.9 µM in the assay with SF-295 CNS and 13.7 µM with SN12C renal.

`CCOC(=O)C(=O)C=P(c1ccccc1)(c1ccccc1)c1ccccc1`: the TGI with HCC-2998 colon, with IGROV1 ovarian, with OVCAR-8 ovarian, with RXF 393 renal, in the assay with SF-295 CNS and in the assay on SK-OV-3 ovarian was more than 100 µM in each case. The TGI in the assay with SN12C renal and with SR leukemia was more than 100 µM throughout.

Turning to `CC(=O)OC(CC1(C)C(C)CCC23COC(=O)C2=CCCC31)c1ccoc1` (centres undefined), the TGI with HCC-2998 colon was 57.1 µM; in the assay with OVCAR-8 ovarian, 54.2 µM; in the assay with RXF 393 renal it was 27.7 µM; in the assay on SF-295 CNS, more than 100 µM; with SK-OV-3 ovarian, more than 100 µM; in the assay on SN12C renal, 71.8 µM.

Regarding `CCOC(=O)Cn1c2ccccc2c(=O)c2cc(C)c(C)c(C#N)c21`, the TGI in the assay on HCC-2998 colon, with IGROV1 ovarian, in the assay on OVCAR-8 ovarian, in the assay with RXF 393 renal, in the assay on SF-295 CNS and with SK-OV-3 ovarian was more than 100 µM in each case. For the same compound, the TGI in the assay with SN12C renal and with SR leukemia was more than 100 µM throughout.
